Earlier results as cited in patent US20040234631A1, “Composition comprising soy and use thereof in the provention and/or treatment of various diseases” (priority 2001, published 2004).

What was measured:
blood vessels = conditions: very low concentration
estrogenic effect = conditions: in vitro, reported by Knight

Molecule | concentration causing dilation of blood vessels (blood vessels) [nM] | relative estrogenic potency (estradiol = 100) (estrogenic effect)
1-alkyl-2-acetyl analog of phosphatidyl choline [platelet-activating factor] | 0.1 | –
O=c1c(-c2ccc(O)cc2)coc2cc(O)ccc12 [daidzein] | – | 0.013
